What all share (format): cell-based
Test [1] relates to reactive oxygen species (ROS) in embryonic chick cardiomyocytes. Description: Intracellular ROS (DCF fluorescence) at reperfusion after simulated ischemia. Here is the method:
(§1) Ventricular embryonic chick cardiomyocytes were prepared according to published procedure. (Vanden Hoek T L, Becker L B, Shao Z, et al. Reactive oxygen species released from mitochondria during brief hypoxia induce preconditioning in cardiomyocytes, J. Biol. Chem. […]; 273:18092-18098, which is incorporated herein by reference). 10-day old chicken embryo hearts were removed, ventricular tissue minced into 0.5 mm fragments, enzymatically dispersed with 0.025% trypsin (Life Technologies, New York, N.Y.), centrifuged, 0.7×10^6 cells were pipetted onto 25 mm coverslips, and incubated with 5% CO2. Coverslips were checked for non-muscle cell contamination. Experiments were performed with 3-5 day cardiac cell cultures, by which time a synchronously contracting layer of cells could be visualized and viability exceeded 95%.
(§2) Coverslips with contracting cells were placed in a 1.2 mL Sykes-Moore perfusion chamber (Bellco Glass Inc., Vineland, N.J.). The chamber and inflow tubing were maintained at 37° C. Perfusate was supplied to the chamber (0.25 ml/min) via stainless steel tubing to minimize diffusive entry of ambient O2.
(§3) Normoxic perfusate used for baseline conditions and for reperfusion subsequent to ischemia contained oxygenated balanced salt solution (BSS) with a PO2 OF 149 torr, PCO2 of 40 torr, pH of 7.4, and [K]^+ of 4.0 mEq/L, and glucose (5.6 mM). To simulate ischemia, the perfusate contained BSS with 2-deoxyglucose (2-DOG) (20 mM) rather than glucose and [K]^+ of 8.0 mEq/L. The ischemic perfusate was equilibrated with 80% N2 and 20% CO2 prior to use to produce a PO2 of ˜5 torr, a PCO2 of 144 torr and a final pH of 6.8.
Intracellular oxidant stress due to ROS was monitored real time with the intracellular probe 2′,7′-dichlorofluorescin diacetate (DCFH-DA, 5 μM, Molecular Probes, Eugene, Oreg.) as described in published literature (Vanden Hoek, F L, et al., Reactive oxygen species released from mitochondria during brief hypoxia induce preconditioning in cardiomyocytes, J. Biol. Chem. […]; 273:18092-18098, which is incorporated by reference herein; Vanden Hoek, T L, et al, Preconditioning in cardiomyocytes protects by attenuating oxidant stress at reperfusion, Circ Res 2000; 86:534-540, which is incorporated by reference herein; Vanden Hoek, T L, Reperfusion, not simulated ischemia initiates intrinsic apoptosis injury in chick cardiomyocytes Am J. Physiol Heart Physiol 2003; 284:H141-150, which is incorporated by reference herein). DCFH-DA is cleaved by cellular esterases upon entry into the cells, trapping the nonfluorescent 2′,7′-dichlorofluorescin (DCFH) inside. ROS, particularly hydrogen peroxide (H2O2) and hydroxyl radical generate the fluorescent product dichlorofluorescein (DCF) by causing the oxidation of DCFH. Increases in DCF fluorescence result from DCFH oxidation to DCF. DCF fluorescence was measured at an excitation wavelength of 480 nm, and a 520 nm band pass emission filter. Attention was focused on the maximal DCF fluorescence intensity value during the first minutes of reperfusion for comparison. All measurements were expressed in arbitrary units (a.u.) of fluorescence.
(§4) For each experiment a field of about 500 cells was observed. Treatment and control groups were matched in sets containing cells isolated and cultured on the same day so as to eliminate variability due to cell batch. Additional 25 mm coverslips were used for replicate experiments (“n”). Results are reported as means plus or minus S.E.M. and two-tailed unpaired t-tests comparing similar time points throughout ischemia and reperfusion were used as tests of significance, with p<0.05 considered to be significant.

For test [2], the system named is Ventricular embryonic chick cardiomyocytes. Description: Cell death (propidium iodide viability assay) after simulated ischemia/reperfusion. To be noted: for cell death: control 50.2±3.0%, n=3. Here is the method: Ventricular embryonic chick cardiomyocytes were prepared according to published procedure. […] Coverslips were checked for non-muscle cell contamination.
as §2
Cell viability was assessed with the fluorochrome propidium iodide (PI) (5 μM, Molecular Probes, Eugene, Oreg.). PI is excluded from viable cells, but enters cells and binds to chromatin after loss of cell membrane integrity. The cells then become highly fluorescent (excitation wavelength of 540 nm and a 590 nm band pass emission filter). PI was used to quantify cell death throughout the entire time of each experiment. […] All cells in the field studied were stained with PI at the end of the experiment by permeabilizing the cells with digitonin (300 μM). Percent cell death was then calculated as the PI fluorescence at any given time point relative to the maximal fluorescence value seen after digitonin exposure.
as §4

Test [3] has as its system nitric oxide (NO) generation in embryonic chick cardiomyocytes. Description: NO generation (DAF-2 fluorescence) during ischemia/reperfusion. To be noted: L-NAME 200 μM during I/R, n=8. On the procedure:
as §1, with “al:” for “al.”, “0.25%” for “0.025%”, “95%. […]” for “95%.”
Endogenous NO generation has been implicated to have both protective and detrimental roles in various in vitro and in vivo models of I/R injury. To test whether endogenous NO was affected by hypocarbic or hypercarbic reperfusion, we continuously monitored the entire course of I/R using the NO indicator DAF-2 DA of cells treated as described in Example 2.
Cells were treated as described in Example 11, and the NO profile and cell viability was assessed in hypercarbic reperfusion compared with hypercarbic reperfusion with 200 μM L-NAME incubated during I/R as described above.

The test system of test [4] is reactive oxygen species (ROS) in embryonic chick cardiomyocytes. Description: ROS (DCF fluorescence) during hypocarbic/normocarbic/hypercarbic reperfusion. The note with it: apocynin 300 μM during reperfusion. Here is the method:
as §1, with “al:” for “al.”, “0.25%” for “0.025%”
To simulate ischemia, the perfusate contained BSS with 2-deoxyglucose (2-DOG) (20 mM) rather than glucose, 18 mM NaCO3 and [K]^+ of 8.0 mEq/L, and was equilibrated with 80% N2 and 20% CO2 to produce a final PO2 of 3-5 torr, PCO2 of 144 torr, and pH 6.8. In addition, 20 mM of glycolytic inhibition 2-deoxyglucose was added to better model adenosine triphosphate depletion.
For perfusion, three perfusate solutions were used: normocarbic reperfusion perfusate, hypocarbic reperfusion perfusate and hypercarbic reperfusion perfusate. […]

The subject of test [5] is Ventricular embryonic chick cardiomyocytes. Description: Return of synchronous cell contraction after simulated ischemia/reperfusion. The note with it: no return in control cells. On the procedure:
as §1, §3
Contractions were assessed by monitoring synchronous movement within the same field of cells as previously reported. A return of contraction following simulated ischemia/reperfusion was indicated when contractions could be seen throughout the field of cells following the three hour period of reperfusion.

Where [6] appears, read: 20 μM NADH isomer at reperfusion.

The text below walks through data of US20090110673A1, “METHODS OF REDUCING CELL DEATH FOLLOWING HYPOXIA / REOXYGENATION” (THE UNIVERSITY OF CHICAGO, priority 2006, published 2009).

Structures are written as SMILES. Values joined by “and” are separate entries in the source; they are usually repeats but may differ in a detail not shown here. Equal entries are not always repeated. “Also recorded” adds a separate entry of the source.

Turning to `CCN(CC)C(=S)S` [DDC, diethyldithiocarbamic acid], the “maximal DCF fluorescence intensity” value in test [1] (DDC 1 mM during simulated ischemia and first 15-30 min of reperfusion, control 2.8±0.2 a.u., n=5) was 1.6±0.1 a.u. Moreover, the “I/R induced cell death” value in test [2] (DDC 1 mM during reperfusion, control 49.7±6.7%, n=5) is recorded as 15.7±4.7%.
`COC(=O)[C@@H](N)CCCNC(=N)N[N+](=O)[O-]` [L-NAME, N^G-nitro-L-arginine methyl ester]: in test [3], the “NO generation (DAF-2 fluorescence) during hypercarbic reperfusion” value is on record as “blocked maintenance of the sustained NO levels; also recorded: reduction of the sustained increase of NO generation”.
For the compound `COc1cc(C(C)=O)ccc1O` [apocynin], the “ROS burst (DCF fluorescence) in hypocarbic reperfusion” value in test [4] (hypocarbic) is given as “did not attenuate the reperfusion ROS burst; also recorded: increased the ROS burst”. For the same compound, the “ROS burst (DCF fluorescence) in normocarbic reperfusion” value in test [4] (normocarbic) was “did not attenuate the reperfusion ROS burst; also recorded: increased the ROS burst”.
In the case of `C=C(C)[C@H]1Cc2c(ccc3c2O[C@@H]2COc4cc(OC)c(OC)cc4[C@@H]2C3=O)O1` [rotenone], in test [1] (rotenone 5 μM (representative of all doses), control 2.4±0.3 a.u., n=5), the “maximal peak DCF fluorescence intensity (reperfusion ROS)” value is on record as 0.7±0.1 a.u. In addition, the “protection against I/R injury (cell protection)” value in test [2] (all tested doses of rotenone, including nanomolar doses for first 15 minutes of reperfusion) is “no tested dose of rotenone conferred cell protection”. The cell death in test [2] (rotenone 100 nM, first 15 minutes of reperfusion) was 61.3±1.6%; in test [2] (rotenone 1 μM, first 15 minutes of reperfusion), 77.4±6.6% and 77.1±6.6%; in test [2] (rotenone 10 μM, first 15 minutes of reperfusion) it was 66.1±3.4% and 66.2±3.4%.
`C/C=C(C)/C=C/C=C/[C@H](OC)[C@@H](C)[C@@H](OC)[C@@H](C)CCc1oc2c(O)c(OC)cc(OC)c2c(=O)c1C` [stigmatellin]: the “return of contractions (groups with return/total)” value in test [5] (stigmatellin 2-20 nM, first 15 minutes of reperfusion) is 5/5. Moreover, the “reperfusion ROS” value is recorded as “ROS was abrogated” in test [1] (stigmatellin 100 μM, first 15 min of reperfusion) and “ROS was attenuated” in test [1] (stigmatellin given during the whole 3 hour course of reperfusion). In addition, the “maximal peak DCF fluorescence intensity” value in test [1] (stigmatellin 2-20 nM, first 15 min of reperfusion, control 2.4±0.3 a.u., n=5) is 0.46±0.02 a.u. The cell death in test [2] (stigmatellin 20 nM, first 15 minutes of reperfusion) was 20.3±5.0%; in test [2] (stigmatellin 100 μM, 3 hours of reperfusion), 80.1±6.0%; in test [2] (stigmatellin 100 μM, first 15 minutes of reperfusion), 52.3±3.0%. In test [2] (stigmatellin 2-20 nM, first 15 min of reperfusion, control 53.8±3.5%, n=5), the I/R cell death was 10.8±2.9%.
As to `NC(=O)C1=CN([C@H]2O[C@H](COP(=O)(O)OP(=O)(O)OC[C@H]3O[C@@H](n4cnc5c(N)ncnc54)[C@H](O)[C@@H]3O)[C@@H](O)[C@H]2O)C=CC1` [α-NADH], the “return of contractions (groups with return/total)” value in test [5] (setting [6]) is 5/5. Further, in test [1] (α-NADH 20 μM co-treated with β-NADH 20 μM), the “effect on β-NADH induced increase in ROS” value is on record as “blocked this increase in ROS; also recorded: reversal of the increase was observed”. Besides, in test [2] (exogenous α-NADH 20 μM, control 47.1±3.0%, n=5), the I/R cell death was 13.8±1.3%.
With `NC(=O)C1=CN([C@@H]2O[C@H](COP(=O)(O)OP(=O)(O)OC[C@H]3O[C@@H](n4cnc5c(N)ncnc54)[C@H](O)[C@@H]3O)[C@@H](O)[C@H]2O)C=CC1` [β-NADH], in test [5] (setting [6]), the “return of contractions (groups with return/total)” value is on record as “absence of contractile return”. The “percent increase in ROS generation during reperfusion over ischemia” value in test [1] (exogenous β-NADH 20 μM, first 10 minutes of reperfusion, control 86.2±19.6%, n=8) was 511±123%. Besides, the “I/R cell death versus control” value in test [2] (exogenous β-NADH 20 μM, first 10 minutes of reperfusion) is listed as “showed no benefit”.
